Assay results taken from publication PMC7483518, “Destabilizing single chain major histocompatibility complex class I protein for repurposed enterokinase proteolysis” (Scientific Reports, 2020).
Like-named read-outs stand apart in the source and are kept apart here.

Experiments:
[1] = tested on: HLA-A*11:01 single chain protein; format: biochemical, Human; set-up: EZ50kDa / EZ50kD (pH 6.2) / EZ50kD (pH 8) / EZ50kD (normalised: EBV1101 = 1, EBV0201 = 0) / EZ50kDa rank: unit not given beside the values; details: for EZ50kDa: Table 3, EGFR peptide library (n = 177, duplicated), 14 h;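 as to EZ50kD (pH 6.2): scaled with positive control peptide as 1 and negative control peptide as 0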;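 as to EZ50kDa: intact 50 kDa band volume scaled with positive control peptide as 1 and negative as 0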
[2] = molecular target: photolabile unchained HLA-A*11:01 pMHC-I protein (Homo sapiens, UniProt P04439, A114D/D185E/E176A/F33Y/L180Q/S129P/T187R); test: ELISA with photolabile unchained pMHC-I protein and UV irradiation; format: binding
[3] = EASY MHC-I A*11:01, run 2019-08-06, 5min, mean of 2 replicates
[4] = EASY MHC-I A*11:01, 2019-07-26, mean of the 2 replicates
[5] = EASY MHC-I A*11:01, gel 2019-07-17 lr1028-1036 5min, mean of 2 replicates
[6] = EASY MHC-I A*11:01, gel 2019-07-17 lr1028-1036 5min, replicate 1 (lanes 1-14)
[7] = EASY MHC-I A*11:01, gel 2019-07-17 lr1028-1036 5min, replicate 2 (lanes 15-28)
[8] = Table 2, pH 6.2, 37 °C, enterokinase, Eq. (4), instability cutoff < 0.3
[9] = Table 2, 62.5 nM photolabile pMHC-I mixture, 5 μM peptide in PBS, UV 365 nm 2 × 5 min on ice, 2 h room temperature on anti-β2m plate, Abs450nm − Abs570nm, instability cutoff < 0.6
[10] = pH 6.2, 37 °C, enterokinase, Eq. (4)
[11] = EASY MHC-I A*11:01, run 2019-08-07, 5min, mean of 2 replicates
[12] = EASY MHC-I A*11:01, 2019-08-01, mean of the 2 replicates
[13] = EASY MHC-I A*11:01, 2019-07-25, mean of the 2 replicates
[14] = EASY MHC-I A*11:01, gel 2019-07-23 lr1037_1045_5min, replicate 1 (first lane set)
[15] = EASY MHC-I A*11:01, gel 2019-07-23 lr1037_1045_5min, replicate 2 (second lane set)
[16] = EASY MHC-I A*11:01, run 2019-08-08, 5min, mean of 2 replicates

ICLTSTVQLIM [TM1028]
EZ_mean [1]: -0.09759
EASY_mean ([2]; […], mean, STDEV): -0.04901

MQLMPFGC [TM1008]
EZ_mean [1, 3]: -0.09972
EASY_mean ([2]; ELISA signal, mean, […]): -0.0333

GSLLDYVRE [CS1016]
EZ_mean [1]: -0.06376
EASY_mean [2]: -0.02695

LITQLMPFGSL [CS1029]
EZ_mean [1]: -0.07478
EASY_mean [2]: -0.02804

TSPKANKE [EX1004]
EZ_mean [1]: -0.03458
EASY_mean [2]: -0.008845

GRAKLLGA [LR1007]
EZ_mean [1]: -0.06438
EASY_mean ([2]; ELISA signal, mean, […]): -0.02108

ITDFGRAKLLGA [LR1045]
EZ_mean [1]: -0.0656
EASY_mean [2]: -0.00307

FGRAKLLGAEEK [LR1048]
EZ_mean [1]: -0.03879
EASY_mean [2]: -0.01082

IMQLMPFGCLLD [TM1049]
EZ_mean [1]: -0.08186
EASY_mean [2]: -0.01469

RAKLLGAEEKEY [LR1050]
EZ_mean [1]: 0.007797
EASY_mean [2]: 0.01434

TDFGRAKLL [LR1013]
EZ_mean [1]: -0.005317
EASY_mean ([2]; […], mean, STDEV): -0.002506

KITDFGRA [LR1002]
EZ_mean [1]: -0.03733
EASY_mean ([2]; […], mean, STDEV): -0.007222

FGRAKLLG [LR1006]
EZ_mean [1]: -0.05388
EASY_mean ([2]; ELISA signal, mean, […]): -0.01563

MPFGSLLD [CS1004]
EZ_mean [1]: -0.07336
EASY_mean [2]: -0.003998

LITQLMPFGS [CS1018]
EZ_mean [1]: -0.05783
EASY_mean [2]: 0.007236

SLLDYVRE [CS1008]
EZ_mean [1]: -0.06325
EASY_mean [2]: -0.02238

IMQLMPFGCLL [TM1037]
EZ_mean [1]: -0.1199
EASY_mean ([2]; ELISA signal, mean, […]): -0.05375

IKTSPKANKEI [EX1020]
EZ_mean [1, 4]: -0.1313
EASY_mean ([2]; ELISA signal, mean, […]): -0.02309

QLMPFGSLLD [CS1021]
EZ_mean [1]: -0.06288
EASY_mean [2]: 0.0006677

TDFGRAKLLGA [LR1034]
EZ_mean [1, 5]: -0.04886
EZ50kD (normalised: EBV1101 = 1, EBV0201 = 0) [1, 6]: -0.06534
Norm (50 kDa band adj. volume normalised: Undig_37C = 1, Dig_37C = 0) [1, 6]: -0.06378
EZ50kD (normalised: EBV1101 = 1, EBV0201 = 0) [1, 7]: -0.03237
Norm (50 kDa band adj. volume normalised: Undig_37C = 1, Dig_37C = 0) [1, 7]: -0.02825
EASY_mean [2]: -0.04602

TVMDIISRR [reference compound]
EZ50kD (pH 6.2) [1, 8]: 1.086
ELISA450nm [2, 9]: 1.944

ITDFGRAKLLG [LR1033]
EZ_mean [1, 5]: -0.04472
EZ50kD (normalised: EBV1101 = 1, EBV0201 = 0) [1, 6]: -0.05531
Norm (50 kDa band adj. volume normalised: Undig_37C = 1, Dig_37C = 0) [1, 6]: -0.05765
EZ50kD (normalised: EBV1101 = 1, EBV0201 = 0) [1, 7]: -0.03414
Norm (50 kDa band adj. volume normalised: Undig_37C = 1, Dig_37C = 0) [1, 7]: -0.02949
EASY_mean [2]: -0.04357

QLIMQLMP [TM1005]
EZ_mean [1, 3]: -0.1114
EASY_mean ([2]; ELISA signal, mean, […]): -0.03905

DFGRAKLLGAEE [LR1047]
EZ_mean [1]: -0.04163
EASY_mean [2]: -0.01199

KITDFGRAKLL [LR1032]
EZ_mean [1, 5]: 0.03523
EZ50kD (normalised: EBV1101 = 1, EBV0201 = 0) [1, 6]: 0.01844
Norm (50 kDa band adj. volume normalised: Undig_37C = 1, Dig_37C = 0) [1, 6]: -0.01259
EZ50kD (normalised: EBV1101 = 1, EBV0201 = 0) [1, 7]: 0.05201
Norm (50 kDa band adj. volume normalised: Undig_37C = 1, Dig_37C = 0) [1, 7]: 0.03105
EZ50kDa [1, 10]: 0.0352 ± 0.024
EASY_mean [2]: 0.009234

IPVAIKTSPKA [EX1016]
EZ_mean [1, 4]: -0.1024
EASY_mean ([2]; […], mean, STDEV): -0.002293

STIPETTVVR [putative peptide, HBV, no IEDB entry]
EZ50kD (pH 6.2) [1, 8]: 0.3226
ELISA450nm [2, 9]: 1.391

ATVLMGLGK [reference compound]
EZ50kD (pH 6.2) [1, 8]: 1.039
ELISA450nm [2, 9]: 1.911

MQLMPFGCL [TM1017]
EZ_mean [1, 11]: -0.1037
EASY_mean ([2]; […], mean, STDEV): -0.03322

KTSPKANKEILD [EX1029]
EZ_mean [1, 12]: -0.1385
EASY_mean [2]: -0.02661

LIMQLMPFG [TM1015]
EZ_mean [1, 11]: -0.1155
EASY_mean ([2]; […], mean, STDEV): -0.03975

DFGRAKLLGAE [LR1035]
EZ_mean [1, 5]: -0.0623
EZ50kD (normalised: EBV1101 = 1, EBV0201 = 0) [1, 6]: -0.08387
Norm (50 kDa band adj. volume normalised: Undig_37C = 1, Dig_37C = 0) [1, 6]: -0.0751
EZ50kD (normalised: EBV1101 = 1, EBV0201 = 0) [1, 7]: -0.04073
Norm (50 kDa band adj. volume normalised: Undig_37C = 1, Dig_37C = 0) [1, 7]: -0.03413
EASY_mean [2]: -0.05461

TVQLIMQLM [TM1012]
EZ_mean [1, 11]: -0.1032
EASY_mean ([2]; […], mean, STDEV): -0.03295

TSTVQLIMQ [TM1010]
EZ_mean [1, 11]: -0.07795
EASY_mean ([2]; […], mean, STDEV): -0.01875

AIKTSPKANKEI [EX1027]
EZ_mean [1, 12]: -0.13
EASY_mean [2]: -0.02114

IMQLMPFG [TM1007]
EZ_mean [1, 3]: -0.09302
EASY_mean ([2]; ELISA signal, mean, […]): -0.02903

MPLGSLLDYVR [CS1034]
EZ_mean [1]: -0.06141
EASY_mean [2]: -0.006346

SLLDYVREHKD [CS1038]
EZ_mean [1]: -0.03388
EASY_mean [2]: -0.01097

AIKTSPKANK [EX1012, EGFR exon 19 deletion-derived peptide]
EZ_mean [1, 13]: -0.007078
EASY_mean ([2]; […], mean, STDEV): 0.01176

ITQLMPFGSLLD [CS1042]
EZ_mean [1]: -0.03951
EASY_mean [2]: -0.01907

ITQLMPFGSL [CS1019]
EZ_mean [1]: -0.0702
EASY_mean [2]: -0.007918

TVQLIMQLMPF [TM1033]
EZ_mean [1]: -0.1125
EASY_mean ([2]; […], mean, STDEV): -0.06339

QLITQLMPFGS [CS1028]
EZ_mean [1]: -0.07904
EASY_mean [2]: -0.02964

GRAKLLGAEEK [LR1037]
EZ_mean ([1]; EASY MHC-I A*11:01, gel 2019-07-23 lr1037_1045_5min, mean of 2 replicates): -0.05993
EZ50kD (normalised: EBV1101 = 1, EBV0201 = 0) [1, 14]: -0.04549
Norm (50 kDa band adj. volume normalised: Undig_37C = 1, Dig_37C = 0) [1, 14]: -0.01318
EZ50kD (normalised: EBV1101 = 1, EBV0201 = 0) [1, 15]: -0.07437
Norm (50 kDa band adj. volume normalised: Undig_37C = 1, Dig_37C = 0) [1, 15]: 0.01353
EASY_mean [2]: 0.0001747

IKTSPKANKEIL [EX1028]
EZ_mean [1, 12]: -0.1371
EASY_mean [2]: -0.02595

AIKTSPKAN [EX1006]
EZ_mean [1, 13]: -0.02264
EASY_mean ([2]; […], mean, STDEV): 0.003202

STVQLIMQ [TM1002]
EZ_mean [1, 3]: -0.09047
EASY_mean ([2]; […], mean, STDEV): -0.02917

PFGSLLDYVR [CS1024]
EZ_mean [1]: -0.007587
EASY_mean [2]: 0.06666

TQLMPFGSLLDY [CS1043]
EZ_mean [1]: -0.01577
EASY_mean [2]: 0.01363

LTSTVQLIMQLM [TM1041]
EZ_mean [1]: -0.1142
EASY_mean ([2]; […], mean, STDEV): -0.04948

KTSPKANKE [EX1008]
EZ_mean [1, 13]: -0.03131
EASY_mean ([2]; […], mean, STDEV): -0.00166

TSTVQLIMQL [TM1020]
EZ_mean [1, 16]: -0.0424
Norm_mean [1, 16]: -0.03086
EASY_mean ([2]; […], mean, STDEV): -0.02933

KTSPKANK [EX1003, EGFR exon 19 deletion-derived peptide]
EZ_mean [1]: 0.03406
EZ50kDa [1, 10]: 0.0341 ± 0.022
EASY_mean [2]: 0.02773

NTLEQTVKK [reference compound]
EZ50kD (pH 6.2) [1, 8]: 0.5647
ELISA450nm [2, 9]: 1.631

RSFKDLLKK [reference compound]
EZ50kD (pH 6.2) ([1]; pH 6.2): 0.6092
ELISA450nm [2]: 1.682

CLTSTVQLIM [TM1018]
EZ_mean [1, 11]: -0.01698
EASY_mean ([2]; […], mean, STDEV): 0.01464

DFGRAKLLGA [LR1024]
EZ_mean [1]: -0.06389
EASY_mean ([2]; ELISA signal, mean, […]): -0.02296
